In US11116735B2, “Use of substituted benzylideneguanidine derivatives as synergists for polymyxin antibiotics” (GUANGZHOU INSIGHTER BIOTECHNOLOGY CO., LTD., priority 2015, dated 2021):
Several values for one entry are separate records, joined by “and”; a condition that tells them apart may be missing. Equal values may be shown once.

Experiments:
[1] = tested on: cherry valley ducks; assay: Combined application of compound 3 and colistin sulfate in duck feed; assay type: in vivo; conditions: 21-day experiment
Method: 800 1-day-aged cherry valley ducks were divided into 4 groups according to Table 10, 4 parallels in each group and 50 ducks in each parallel. For each group, colistin sulfate and/or compound 3 were added into the feed. The ducks were kept in cages and given ad libitum access to feed and water during a 21-day experiment. Synergy of compound 3 and colistin sulfate on the ducks in the weight gain and feed efficiency was observed from the result (see Table 11).

[2] = tested on: E. coli 2G-7; assay: MIC by doubling dilution, colistin sulfate-resistant E. coli 2G-7
Method: (§1) In vitro minimum inhibitory concentrations of colistin sulfate against the strains where the cultures respectively comprised 20.0 ppm of the substituted benzylideneguanidine derivatives were also measured.

[3] = tested on: weanling piglets; assay: Synergy of derivatives and colistin sulfate in the feed for weanling piglets; assay type: in vivo, Duroc×Landrace×Large crossbred lean weanling piglets; conditions: creep feed with 20 ppm colistin sulfate and 150 ppm derivative (hydrochloride), ten days
Method: 90 28-day-aged Duroc×Landrace×Large crossbred lean weanling piglets similar in weight were divided into 9 groups, 10 piglets in each group. For each group, colistin sulfate and/or various substituted benzylideneguanidine derivatives were added into the antibiotic-free creep feed. The piglets were given ad libitum access to feed and water during the experiment. Weight gain, feed efficiency and diarrhea rate of each group within ten days were recorded.

[4] = tested on: Salmonella sp. 3087; assay: MIC, resistance reversal by various concentrations of compound 3, Salmonella sp. 3087
Method: (§2) The compound 3 in this embodiment was in the form of a hydrochloride, i.e., the experiments were carried out with a hydrochloride of compound 3.
(§3) In vitro minimum inhibitory concentrations of colistin sulfate against the strains where the cultures respectively comprised various concentrations of compound 3 were also measured.

[5] = tested on: E. coli 3H-4; assay: MIC by doubling dilution, colistin sulfate-resistant E. coli 3H-4
Method: as §1

[6] = tested on: E. coli 2S-19; assay: MIC by doubling dilution, colistin sulfate-susceptible E. coli 2S-19; assay type: cell-based, Escherichia coli
[7] = tested on: E. coli 3Y-9; assay: MIC by doubling dilution, colistin sulfate-susceptible E. coli 3Y-9; assay type: cell-based, Escherichia coli
[8] = tested on: various colistin sulfate-resistant Gram-negative bacteria; assay: MIC by doubling dilution, summary over resistant species; conditions: compound 3 alone (hydrochloride)
Method: as §2, §3

[9] = tested on: E. coli 4D-6; assay: MIC by doubling dilution, colistin sulfate-resistant E. coli 4D-6
Method: as §1

[10] = tested on: E. coli 5W-7; assay: MIC by doubling dilution, colistin sulfate-susceptible E. coli 5W-7; assay type: cell-based, Escherichia coli
[11] = tested on: E. coli 5F-1; assay: MIC by doubling dilution, colistin sulfate-resistant E. coli 5F-1
Method: as §1

[12] = tested on: E. coli 5F-1; assay: MIC, resistance reversal by various concentrations of compound 3, E. coli 5F-1
Method: as §2, §3

[13] = tested on: Shigella sp. 2D89; assay: MIC, resistance reversal by various concentrations of compound 3, Shigella sp. 2D89
Method: as §2, §3

[14] = tested on: Klebsiella sp. 4125; assay: MIC, resistance reversal by various concentrations of compound 3, Klebsiella sp. 4125
Method: as §2, §3

[15] = tested on: fast-growing yellow feather broilers; assay: Combined application of compound 3 and colistin sulfate in chicken feed; assay type: in vivo; conditions: 28-day experiment; for Average daily weight gain / Feed conversion ratio / Survival rate: broilers
Method: 800 1-day-aged fast-growing yellow feather broilers were divided into 4 groups, 4 parallels in each group and 50 broilers in each parallel. For each group, colistin sulfate and/or compound 3 were added into the feed. The chicken were kept in cages and given ad libitum access to feed and water during a 28-day experiment. Synergy of compound 3 and colistin sulfate on the chicken in the weight gain and feed efficiency was observed from the result (see Table 10).

[16] = tested on: weanling piglets; assay: Synergy of compound 3 and colistin sulfate in the feed for weanling piglets; assay type: in vivo, Duroc×Landrace×Large crossbred lean weanling piglets; conditions: for Average daily weight gain / Diarrhea rate / Feed conversion ratio: weanling piglets, ten days
Method: 120 28-day-aged Duroc×Landrace×Large crossbred lean weanling piglets similar in weight were divided into 12 groups, 10 piglets in each group. For each group, colistin sulfate and/or compound 3 were added into the antibiotic-free creep feed. The piglets were given ad libitum access to feed and water during the experiment. Weight gain, feed efficiency and diarrhea rate of each group within ten days were recorded.

[17] = tested on: P. aeruginosa E543; assay: MIC, resistance reversal by various concentrations of compound 3, P. aeruginosa E543
Method: as §2, §3

[18] = 20 ppm colistin sulfate and 50 ppm compound 3 in feed (Test)
[19] = colistin sulfate with 0 ppm compound 3, or compound 3 (hydrochloride) in the absence of colistin sulfate
[20] = 20 ppm colistin sulfate and 150 ppm compound 3 in creep feed (Test, groups 10-12)
[21] = 150 ppm in creep feed, no colistin sulfate (Control 2, groups 7-9)

## CC(C)Oc1ccc(C=NN=C(N)NN=Cc2ccc(OC(C)C)cc2)cc1 [Compound 3]
[1]; [18]
  Average daily weight gain: 55.6 g
  Feed conversion ratio: 1.817
  Survival rate: 100%
[1]
  Synergy with colistin sulfate in weight gain and feed efficiency: Synergy
[1]; 100 ppm compound 3 in feed
  Average daily weight gain: 50.5 g
  Feed conversion ratio: 1.926
  Survival rate: 100%
[2]; E. coli 2G-7, colistin sulfate-resistant, substance alone, derivatives as hydrochlorides
  In vitro minimum inhibitory concentration (MIC) of the substance alone: >800 ppm
[2]; E. coli 2G-7, resistant, culture comprised 20.0 ppm of the derivative (hydrochloride)
  In vitro MIC of colistin sulfate in the presence of the substituted benzylideneguanidine derivative: 1.0 ppm
[3]
  Average daily weight gain: 258 g
  Diarrhea rate: 8%
  Feed conversion ratio: 1.441
[4]; 5 ppm compound 3
  In vitro MIC of colistin sulfate in the presence of compound 3: 64.00 ppm
[4]; 10 ppm compound 3
  In vitro MIC of colistin sulfate in the presence of compound 3: 16.00 ppm
[4]; 20 ppm compound 3
  In vitro MIC of colistin sulfate in the presence of compound 3: 4.00 ppm
[4]; 40 ppm compound 3
  In vitro MIC of colistin sulfate in the presence of compound 3: 2.00 ppm
[4]; 80 ppm compound 3
  In vitro MIC of colistin sulfate in the presence of compound 3: 1.00 ppm
[4]; [19]
  In vitro MIC of the substance alone: >800 ppm
[5]; E. coli 3H-4, colistin sulfate-resistant, substance alone, derivatives as hydrochlorides
  In vitro minimum inhibitory concentration (MIC) of the substance alone: >800 ppm
[5]; E. coli 3H-4, resistant, culture comprised 20.0 ppm of the derivative (hydrochloride)
  In vitro MIC of colistin sulfate in the presence of the substituted benzylideneguanidine derivative: 0.5 ppm
[6]; E. coli 2S-19, colistin sulfate-susceptible, substance alone, derivatives as hydrochlorides
  In vitro minimum inhibitory concentration (MIC) of the substance alone: >800 ppm
[6]; E. coli 2S-19, culture comprised 20.0 ppm of the derivative (hydrochloride), colistin sulfate serially diluted
  In vitro MIC of colistin sulfate in the presence of the substituted benzylideneguanidine derivative: 0.50 ppm
[7]; E. coli 3Y-9, colistin sulfate-susceptible, substance alone, derivatives as hydrochlorides
  In vitro minimum inhibitory concentration (MIC) of the substance alone: >800 ppm
[7]; E. coli 3Y-9, culture comprised 20.0 ppm of the derivative (hydrochloride), colistin sulfate serially diluted
  In vitro MIC of colistin sulfate in the presence of the substituted benzylideneguanidine derivative: 0.50 ppm
[8]
  Inhibitory activity on the tested strains: did not exhibit inhibitory activity
[9]; E. coli 4D-6, colistin sulfate-resistant, substance alone, derivatives as hydrochlorides
  In vitro minimum inhibitory concentration (MIC) of the substance alone: >800 ppm
[9]; E. coli 4D-6, resistant, culture comprised 20.0 ppm of the derivative (hydrochloride)
  In vitro MIC of colistin sulfate in the presence of the substituted benzylideneguanidine derivative: 2.0 ppm
[10]; E. coli 5W-7, colistin sulfate-susceptible, substance alone, derivatives as hydrochlorides
  In vitro minimum inhibitory concentration (MIC) of the substance alone: >800 ppm
[10]; E. coli 5W-7, culture comprised 20.0 ppm of the derivative (hydrochloride), colistin sulfate serially diluted
  In vitro MIC of colistin sulfate in the presence of the substituted benzylideneguanidine derivative: 0.25 ppm
[11]; E. coli 5F-1, colistin sulfate-resistant, substance alone, derivatives as hydrochlorides
  In vitro minimum inhibitory concentration (MIC) of the substance alone: >800 ppm
[11]; E. coli 5F-1, resistant, culture comprised 20.0 ppm of the derivative (hydrochloride)
  In vitro MIC of colistin sulfate in the presence of the substituted benzylideneguanidine derivative: 1.0 ppm
[12]; 5 ppm compound 3
  In vitro MIC of colistin sulfate in the presence of compound 3: 32.00 ppm
[12]; 10 ppm compound 3
  In vitro MIC of colistin sulfate in the presence of compound 3: 8.00 ppm
[12]; 20 ppm compound 3
  In vitro MIC of colistin sulfate in the presence of compound 3: 1.00 ppm
[12]; 40 ppm compound 3
  In vitro MIC of colistin sulfate in the presence of compound 3: 1.00 ppm
[12]; 80 ppm compound 3
  In vitro MIC of colistin sulfate in the presence of compound 3: 0.50 ppm
[12]; [19]
  In vitro MIC of the substance alone: >800 ppm
[13]; 5 ppm compound 3
  In vitro MIC of colistin sulfate in the presence of compound 3: 16.00 ppm
[13]; 10 ppm compound 3
  In vitro MIC of colistin sulfate in the presence of compound 3: 2.00 ppm
[13]; 20 ppm compound 3
  In vitro MIC of colistin sulfate in the presence of compound 3: 1.00 ppm
[13]; 40 ppm compound 3
  In vitro MIC of colistin sulfate in the presence of compound 3: 0.25 ppm
[13]; 80 ppm compound 3
  In vitro MIC of colistin sulfate in the presence of compound 3: 0.25 ppm
[13]; [19]
  In vitro MIC of the substance alone: >800 ppm
[14]; 5 ppm compound 3
  In vitro MIC of colistin sulfate in the presence of compound 3: 32.00 ppm
[14]; 10 ppm compound 3
  In vitro MIC of colistin sulfate in the presence of compound 3: 8.00 ppm
[14]; 20 ppm compound 3
  In vitro MIC of colistin sulfate in the presence of compound 3: 2.00 ppm
[14]; 40 ppm compound 3
  In vitro MIC of colistin sulfate in the presence of compound 3: 1.00 ppm
[14]; 80 ppm compound 3
  In vitro MIC of colistin sulfate in the presence of compound 3: 1.00 ppm
[14]; [19]
  In vitro MIC of the substance alone: >800 ppm
[15]; [18]
  Average daily weight gain: 44.6 g
  Feed conversion ratio: 1.855
  Survival rate: 100%
[15]; 100 ppm compound 3 in feed
  Average daily weight gain: 40.2 g
  Feed conversion ratio: 1.943
  Survival rate: 100%
[15]; chicken
  Synergy with colistin sulfate in weight gain and feed efficiency: Synergy
[16]; groups 10, 11 and 12: colistin sulfate added together with compound 3
  Reduction of the diarrhea rate: 20%
[16]; [20]
  Average daily weight gain: 254 g and 248 g and 251 g
  Diarrhea rate: 12% and 9% and 10%
  Feed conversion ratio: 1.435 and 1.427 and 1.453
[16]; [21]
  Average daily weight gain: 200 g and 205 g and 211 g
  Diarrhea rate: 36% and 38% and 34%
  Feed conversion ratio: 1.666 and 1.639 and 1.647
[17]; 5 ppm compound 3
  In vitro MIC of colistin sulfate in the presence of compound 3: 32.00 ppm
[17]; 10 ppm compound 3
  In vitro MIC of colistin sulfate in the presence of compound 3: 8.00 ppm
[17]; 20 ppm compound 3
  In vitro MIC of colistin sulfate in the presence of compound 3: 2.00 ppm
[17]; 40 ppm compound 3
  In vitro MIC of colistin sulfate in the presence of compound 3: 0.50 ppm
[17]; 80 ppm compound 3
  In vitro MIC of colistin sulfate in the presence of compound 3: 0.50 ppm
[17]; [19]
  In vitro MIC of the substance alone: >800 ppm
